{"source": "patent EP2501821B1", "about": "“PROCESS FOR PRODUCING PRIMYCIN, PRIMYCIN COMPONENT(S), PRECURSORS AND METABOLITES THEREOF VIA FEMENTATION BY THE USE OF BACTERIAL SPECIES SACCHAROMONOSPORA AZUREA” (Pannonpharma Gyógyszergyártó Kft., priority 2009, dated 2011)", "key": {"in vitro cell cultures": {"tested_on": "in vitro cell cultures", "conditions": "cited from earlier work"}, "[1]": {"conditions": "in water; cited from earlier work"}, "S. cyanea (44106)": {"tested_on": "S. cyanea (44106)", "assay": "primycin MIC (primycin tolerance)", "format": "cell-based", "conditions": "S. cyanea DSM 44106", "method": "(§1) Strains were grown for seven days and once the colonies were removed and extracted, they were tested for antimicrobial production in agar diffusion tests. […] For this comparison we repeatedly used the strains of the culture collection of Department which had preliminary been tested for primycin susceptibility. Our work hypothesis was further supported by our experience that a butanol-ethanol-water mixture (in the ratio of 1:1:2 respectively) which is an effective solvent of primycin was suitable for the extraction of the antibiotic. […] Thereafter we carried out shake flask fermentations with the Saccharomonospora sp. strains suitable for the process. Production results on shake flasks of the strains tested were congruent to their cultivations on solid media. […] Table 1. Primycin tolerance and antibiotic production of Saccharomonospora isolates. *: S. azurea strains identified and registered on the name S. caesia earlier: […]"}, "[2]": {"tested_on": "Saccharomonospora azurea DSM 44631", "assay": "primycin MIC (primycin tolerance)", "format": "cell-based", "conditions": "S. azurea DSM 44631", "method": "as §1"}, "S. viridis (43017)": {"tested_on": "S. viridis (43017)", "assay": "primycin MIC (primycin tolerance)", "format": "cell-based", "conditions": "S. viridis DSM 43017", "method": "as §1"}, "[3]": {"tested_on": "Saccharomonospora azurea (caesia) DSM 43044", "assay": "primycin MIC (primycin tolerance)", "format": "cell-based", "conditions": "S. azurea (caesia) DSM 43044", "method": "as §1"}, "S. glauca (43769)": {"tested_on": "S. glauca (43769)", "assay": "primycin MIC (primycin tolerance)", "format": "cell-based", "conditions": "S. glauca DSM 43769", "method": "as §1"}, "[4]": {"tested_on": "Saccharomonospora azurea (caesia) DSM 43068", "assay": "primycin MIC (primycin tolerance)", "format": "cell-based", "conditions": "S. azurea (caesia) DSM 43068", "method": "as §1"}, "S. xinjiangensis (44391)": {"tested_on": "S. xinjiangensis (44391)", "assay": "primycin MIC (primycin tolerance)", "format": "cell-based", "conditions": "S. xinjiangensis DSM 44391", "method": "as §1"}, "[5]": {"tested_on": "Saccharomonospora azurea (caesia) DSM 43680", "assay": "primycin MIC (primycin tolerance)", "format": "cell-based", "conditions": "S. azurea (caesia) DSM 43680", "method": "as §1"}, "[6]": {"tested_on": "one strain of Listeria monocytogenes", "conditions": "broth dilution assay; cited from earlier work"}, "[7]": {"tested_on": "Staphylococcus epidermidis (77 strains)", "conditions": "broth dilution assay; cited from earlier work"}, "[8]": {"tested_on": "Gram-positive bacteria and Mycobacterium species", "conditions": "cited from earlier work"}, "[9]": {"tested_on": "Staphylococcus aureus (50 strains)", "conditions": "broth dilution assay; cited from earlier work"}, "Staphylococcus sp.": {"tested_on": "Staphylococcus sp.", "assay": "primycin MIC, antimicrobial spectrum re-evaluation", "format": "cell-based", "conditions": "culture collection strains", "excerpt": "(§2) In our research leading to our new findings we assayed the antimicrobial spectrum of primycin in order to re-evaluate the minimal inhibitory concentration (MIC) values known from the literature and to determine the primycin susceptibility of new isolates. Comparative test results on strains of Gram-positive bacterial species of Microbial strain culture collection of PTE TTK BI Department of General and Environmental Microbiology were in agreement with the literature data with primycin MIC values of 0.06 mg/L for Staphylococcus sp. and 0.03 mg/L for Bacillus sp. respectively. Primycin MIC values higher than 1 mg/L for any of the Gram-positive strains tested were not detected."}, "Bacillus sp.": {"tested_on": "Bacillus sp.", "assay": "primycin MIC, antimicrobial spectrum re-evaluation", "format": "cell-based", "conditions": "culture collection strains", "excerpt": "as §2"}, "Gram-positive strains": {"tested_on": "Gram-positive strains", "assay": "primycin MIC, antimicrobial spectrum re-evaluation", "format": "cell-based, Gram-positive bacterial species", "conditions": "any of the Gram-positive strains tested", "excerpt": "as §2"}, "[10]": {"tested_on": "strains of species belonging to Saccharomonospora genus", "assay": "primycin MIC (primycin tolerance)", "format": "cell-based"}, "[11]": {"tested_on": "Saccharomonospora aurea strains", "assay": "primycin MIC (primycin tolerance), summary statement", "format": "cell-based", "excerpt": "As it is known that antibiotic-producing strains are less susceptible to the antibiotic produced by themselves and the primordials of the existing primycin-producing strain also was selected by primycin tolerance level to enhance their production capability, it has been suspected that lowered primycin susceptibility of Saccharomonospora azurea strains can be the outcome of the production of an antibiotic with a mode of action analogue to that of primycin. The literature concordantly states that primycin has a unique mode of action, therefore it could be suspected from our surprising findings that the antibiotic supposedly produced by these strains can be primycin itself. However, there is no literature on primycin production of Saccharomonospora azurea or any other presently accepted species of Saccharomonospora genera."}, "[12]": {"tested_on": "Streptococcus faecalis (76 strains)", "conditions": "broth dilution assay; cited from earlier work"}, "Gram-negative species": {"tested_on": "Gram-negative species", "assay": "primycin antimicrobial spectrum re-evaluation", "format": "cell-based", "excerpt": "as §2"}}}
{"substance": "primycin", "values": [{"measurement": "toxicity", "setting": "in vitro cell cultures", "value": "not shown to be toxic"}, {"measurement": "solubility", "setting": "[1]", "value": "poorly soluble in water"}, {"measurement": "Primycin MIC", "setting": "S. cyanea (44106)", "value": 8, "unit": "µg/mL"}, {"measurement": "Primycin MIC", "setting": "[2]", "value": 64, "unit": "µg/mL"}, {"measurement": "Primycin MIC", "setting": "S. viridis (43017)", "value": "0,5 mg/L"}, {"measurement": "Primycin MIC", "setting": "[3]", "value": 64, "unit": "µg/mL"}, {"measurement": "Primycin MIC", "setting": "S. glauca (43769)", "value": 8, "unit": "µg/mL"}, {"measurement": "Primycin MIC", "setting": "[4]", "value": 64, "unit": "µg/mL"}, {"measurement": "Primycin MIC", "setting": "S. xinjiangensis (44391)", "value": 1, "unit": "µg/mL"}, {"measurement": "Primycin MIC", "setting": "[5]", "value": 64, "unit": "µg/mL"}, {"measurement": "minimal inhibitory concentrations (MIC)", "setting": "[6]", "value": "0.12 to 0.5", "unit": "µg/mL"}, {"measurement": "minimal inhibitory concentrations (MIC)", "setting": "[7]", "value": "0.12 to 0.5", "unit": "µg/mL"}, {"measurement": "bacteriostatic effect", "setting": "[8]", "value": "has bacteriostatic effect"}, {"measurement": "minimal inhibitory concentrations (MIC)", "setting": "[9]", "value": "0.12 to 0.5", "unit": "µg/mL"}, {"measurement": "MIC", "setting": "Staphylococcus sp.", "value": 0.06, "unit": "µg/mL"}, {"measurement": "MIC", "setting": "Bacillus sp.", "value": 0.03, "unit": "µg/mL"}, {"measurement": "MIC", "setting": "Gram-positive strains", "value": "≤ 1", "unit": "µg/mL"}, {"measurement": "MIC", "setting": "[10]", "value": "8 to 64", "unit": "µg/mL"}, {"measurement": "MIC", "setting": "[11]", "value": 64, "unit": "µg/mL"}, {"measurement": "minimal inhibitory concentrations (MIC)", "setting": "[12]", "value": "0.12 to 0.5", "unit": "µg/mL"}, {"measurement": "effectiveness", "setting": "Gram-negative species", "value": "did not prove to be effective"}]}
